Columns and labels:
[1] = target: T1, human TTK (Homo sapiens, UniProt P33981); experiment: TTK inhibition assay (indirect ELISA); assay type: biochemical; settings: read-out: TTK IC50 Range
T1 construct: amino terminal GST fusion of full length human TTK; purchased Invitrogen
T1 sequence (P33981 1-857): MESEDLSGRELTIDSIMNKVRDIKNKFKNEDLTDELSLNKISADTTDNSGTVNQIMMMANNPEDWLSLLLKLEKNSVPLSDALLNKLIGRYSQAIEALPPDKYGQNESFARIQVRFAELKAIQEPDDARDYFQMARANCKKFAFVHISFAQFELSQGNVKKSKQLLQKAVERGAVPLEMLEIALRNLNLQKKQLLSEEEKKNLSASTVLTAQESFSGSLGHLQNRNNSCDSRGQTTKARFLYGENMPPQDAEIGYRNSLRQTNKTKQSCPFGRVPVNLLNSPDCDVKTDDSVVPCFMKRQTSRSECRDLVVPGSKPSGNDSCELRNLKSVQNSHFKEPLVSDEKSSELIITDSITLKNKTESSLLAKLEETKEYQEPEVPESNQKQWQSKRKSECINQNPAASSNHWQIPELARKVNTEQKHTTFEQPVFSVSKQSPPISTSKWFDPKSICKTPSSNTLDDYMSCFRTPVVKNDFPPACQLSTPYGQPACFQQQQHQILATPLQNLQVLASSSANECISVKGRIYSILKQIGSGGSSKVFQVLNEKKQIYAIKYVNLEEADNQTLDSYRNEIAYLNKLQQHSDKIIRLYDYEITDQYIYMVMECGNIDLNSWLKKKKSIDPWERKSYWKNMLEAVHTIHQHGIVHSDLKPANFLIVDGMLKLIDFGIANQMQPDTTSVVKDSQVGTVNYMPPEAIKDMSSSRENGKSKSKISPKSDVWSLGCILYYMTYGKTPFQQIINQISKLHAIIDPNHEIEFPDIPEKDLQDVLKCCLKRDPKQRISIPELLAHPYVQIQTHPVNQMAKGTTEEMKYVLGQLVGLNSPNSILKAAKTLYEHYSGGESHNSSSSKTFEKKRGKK

[2] = tested on: colon cancer cells (HCT116); experiment: Cancer cell line growth inhibition (SRB assay); assay type: cell-based; settings: Homo sapiens, HCT-116; read-out: Cancer Cell Line GI50 Range HCT116
[3] = tested on: ovarian cancer cells (PA-1); experiment: Cancer cell line growth inhibition (SRB assay); assay type: cell-based; settings: Homo sapiens, PA-1; read-out: Cancer Cell Line GI50 Range PA-1
[4] = tested on: Breast cancer cells; experiment: Cancer cell line growth inhibition (SRB assay); assay type: cell-based; settings: Homo sapiens; MDA-MB-468; read-out: Cancer Cell Line GI50 Range MDA-MB-468

Row | Structure (SMILES) | IC50 [1] | GI50 [2] | GI50 [3] | GI50 [4]
1 | CN1CC2(CC(=O)c3cc(-c4n[nH]c5ccc(C(=O)N[C@H](c6ccccc6)C6CC6)cc45)ccc3O2)C1 [Example A254, (S)-N-(cyclopropyl(phenyl)methyl)-3-(1-methyl-4′-oxospiro[azetidine-3,2′-chroman]-6′-yl)-1H-indazole-5-carboxamide] | < 100 nM | 100 to 500 nM | 100 to 500 nM | > 500 nM
2 | CN1CC2(CC(O)c3cc(-c4n[nH]c5ccc(C(=O)N[C@H](c6ccccc6)C6CC6)cc45)ccc3O2)C1 (stereo partly drawn) [Example A256, N-((S)-cyclopropyl(phenyl)methyl)-3-(4′-hydroxy-1-methylspiro(azetidine-3,2-chroman]-6′-yl)-1H-indazole-5-carboxamide] | 100 to 500 nM | > 500 nM | > 500 nM | > 500 nM
3 | O=C(N[C@H](c1ccccn1)C1CC1)c1ccc2[nH]nc(-c3ccc4c(c3)C(=O)CC3(CCOCC3)O4)c2c1 [Example A262, (S)-N-(cyclopropyl(pyridin-2-yl)methyl)-3-(4-oxo-2′,3′,5′,6′-tetrahydrospiro[chroman-2,4′-pyran]-6-yl)-1H-indazole-5-carboxamide] | < 100 nM | 100 to 500 nM | 100 to 500 nM | 100 to 500 nM
4 | O=CN1CCC2(CC1)CC(=O)c1cc(-c3n[nH]c4ccc(C(=O)N[C@H](c5ccccn5)C5CC5)cc34)ccc1O2 [Example A263, (S)-N-(cyclopropyl(pyridin-2-yl)methyl)-3-(1′-formyl-4-oxospiro[chroman-2,4′-piperidin]-6-yl)-1H-indazole-5-carboxamide] | < 100 nM | 100 to 500 nM | < 100 nM | 100 to 500 nM
5 | O=C(N[C@H](c1ccccn1)C1CC1)c1cc2c(-c3ccc(N4C5CCC4CC(O)C5)cc3)n[nH]c2cc1F (stereo partly drawn) [Example A271, N-((S)-cyclopropyl(pyridin-2-yl)methyl)-6-fluoro-3-(4-((1R,3R,5S)-3-hydroxy-8-azabicyclo[3.2.1]octan-8-yl)phenyl)-1H-indazole-5-carboxamide] | < 100 nM | > 500 nM | 100 to 500 nM | > 500 nM
6 | O=C(N[C@H](c1ccccn1)C1CC1)c1cc2c(-c3ccc(N4[C@@H]5CC[C@H]4COC5)cc3)n[nH]c2cc1F [Example A272, 3-(4-((1R,5S)-3-oxa-8-azabicyclo[3.2.1]octan-8-yl)phenyl)-N-((S)-cyclopropyl(pyridin-2-yl)methyl)-6-fluoro-1H-indazole-5-carboxamide] | < 100 nM | 100 to 500 nM | 100 to 500 nM | > 500 nM
7 | CC(C)C(NC(=O)c1ccc2[nH]nc(-c3ccc(O[C@H]4C[C@H]5CC[C@@H](C4)N5C)cc3)c2c1)c1ccccc1F (stereo partly drawn) [Example A281, N-(1-(2-fluorophenyl)-2-methylpropyl)-3-(4-(((1R,3R,5S)-8-methyl-8-azabicyclo[3.2.1]octan-3-yl)oxy)phenyl)-1H-indazole-5-carboxamide] | < 100 nM | < 100 nM | < 100 nM | 100 to 500 nM
8 | CN1[C@@H]2CC[C@H]1C[C@@H](Oc1ccc(-c3n[nH]c4ccc(C(=O)NC(c5ccccc5Cl)C5CCCC5)cc34)cc1)C2 (stereo partly drawn) [Example A284, N-((2-chlorophenyl)(cyclopentyl)methyl)-3-(4-(((1R,3R,5S)-8-methyl-8-azabicyclo[3.2.1]octan-3-yl)oxy)phenyl)-1H-indazole-5-carboxamide] | < 100 nM | 100 to 500 nM | 100 to 500 nM | 100 to 500 nM
9 | CN1[C@@H]2CC[C@H]1C[C@H](Oc1ccc(-c3n[nH]c4ccc(C(=O)NC(c5ccccc5)C5CC5)cc34)cc1)C2 (stereo partly drawn) [Example A286, N-(cyclopropyl(phenyl)methyl)-3-(4-(((1R,3S,5S)-8-methyl-8-azabicyclo[3.2.1]octan-3-yl)oxy)phenyl)-1H-indazole-5-carboxamide] | < 100 nM | < 100 nM | < 100 nM | < 100 nM
10 | CCC(CC)C(NC(=O)c1ccc2[nH]nc(-c3ccc(OC4CCN(C5COC5)CC4)cc3)c2c1)c1ccccn1 (centres unmarked) [Example A292, N-(2-ethyl-1-(pyridin-2-yl)butyl)-3-(4-((1-(oxetan-3-yl)piperidin-4-yl)oxy)phenyl)-1H-indazole-5-carboxamide] | < 100 nM | < 100 nM | < 100 nM | < 100 nM
11 | CN1CC(Oc2ccc(-c3n[nH]c4ccc(C(=O)N[C@H](c5ccccn5)C5CCCC5)cc34)cc2)C1 [Example A295, (S)-N-(cyclopentyl(pyridin-2-yl)methyl)-3-(4-((1-methylazetidin-3-yl)oxy)phenyl)-1H-indazole-5-carboxamide] | < 100 nM | < 100 nM | < 100 nM | 100 to 500 nM
12 | CC(C)C[C@H](NC(=O)c1ccc2[nH]nc(-c3ccc(N4C5CCCC4CC(O)C5)cc3)c2c1)c1ccccn1 (stereo partly drawn) [Example A304, 3-(4-((1R,3S,5S)-3-hydroxy-9-azabicyclo[3.3.1]nonan-9-yl)phenyl)-N-((S)-3-methyl-1-(pyridin-2-yl)butyl)-1H-indazole-5-carboxamide] | < 100 nM | 100 to 500 nM | 100 to 500 nM | 100 to 500 nM
13 | O=C(N[C@@H](c1ncccn1)C1CCCC1)c1ccc2[nH]nc(-c3ccc(N4CC(C5COC5)C4)cc3)c2c1 [Example A312, (R)-N-(cyclopentyl(pyrimidin-2-yl)methyl)-3-(4-(3-(oxetan-3-yl)azetidin-1-yl)phenyl)-1H-indazole-5-carboxamide] | < 100 nM | < 100 nM | < 100 nM | < 100 nM
14 | CC(C)C(NC(=O)c1ccc2[nH]nc(-c3ccc(O[C@H]4C[C@H]5CC[C@@H](C4)N5C4COC4)cc3)c2c1)c1ccccc1Cl (stereo partly drawn) [Example A324, N-(1-(2-chlorophenyl)-2-methylpropyl)-3-(4-(((1R,3R,5S)-8-(oxetan-3-yl)-8-azabicyclo[3.2.1]octan-3-yl)oxy)phenyl)-1H-indazole-5-carboxamide] | < 100 nM | 100 to 500 nM | 100 to 500 nM | 100 to 500 nM

Second part, the compound after the results:

Row | IC50 [1] | GI50 [2] | GI50 [3] | GI50 [4] | Structure (SMILES)
15 | < 100 nM | 100 to 500 nM | 100 to 500 nM | 100 to 500 nM | CC(C)[C@H](NC(=O)c1ccc2[nH]nc(-c3ccc4c(c3)C(=O)CC3(CN(C)C3)O4)c2c1)c1ccccc1Cl [Example A255, (S)-N-(1-(2-chlorophenyl)-2-methylpropyl)-3-(1-methyl-4′-oxospiro[azetidine-3,2′-chroman]-6′-yl)-1H-indazole-5-carboxamide]
16 | < 100 nM | < 100 nM | < 100 nM | 100 to 500 nM | O=C(N[C@@H](c1ccccc1F)C1CC1)c1ccc2[nH]nc(-c3ccc(N4CCN(C5COC5)CC4)cc3)c2c1 [Example A270, (R)-N-(cyclopropyl(2-fluorophenyl)methyl)-3-(4-(4-(oxelan-3-yl)piperazin-1-yl)phenyl)-1H-indazole-5-carboxamide]
17 | < 100 nM | < 100 nM | < 100 nM | 100 to 500 nM | CC(C)C[C@H](NC(=O)c1ccc2[nH]nc(-c3ccc(N4CC(N5CCOCC5)C4)cc3)c2c1)c1ccccc1F [Example A276, (S)-N-(1-(2-fluorophenyl)-3-methylbutyl)-3-(4-(3-morpholinoazetidin-1-yl)phenyl)-1H-indazole-5-carboxamide]
18 | < 100 nM | 100 to 500 nM | 100 to 500 nM | > 500 nM | CC(C)C(NC(=O)c1ccc2[nH]nc(-c3ccc(OC4CN(C)C4)cc3)c2c1)c1ccccc1Cl (centres unmarked) [Example A289, N-(1-(2-chlorophenyl)-2-methylpropyl)-3-(4-((1-methylazetidin-3-yl)oxy)phenyl)-1H-indazole-5-carboxamide]
19 | < 100 nM | 100 to 500 nM | 100 to 500 nM | 100 to 500 nM | O=C(N[C@@H](c1ccccn1)C1CC1)c1ccc2[nH]nc(-c3ccc(N4CC(N5CCOCC5)C4)cc3)c2c1 [Example A316, (R)-N-(cyclopropyl(pyridin-2-yl)methyl)-3-(4-(3-morpholinoazetidin-1-yl)phenyl)-1H-indazole-5-carboxamide]
20 | < 100 nM | 100 to 500 nM | < 100 nM | 100 to 500 nM | CC(C)[C@@H](NC(=O)c1ccc2[nH]nc(-c3ccc(N4CC(N5CCOCC5)C4)cc3)c2c1)c1ccccc1Cl [Example A317, (R)-N-(1-(2-chlorophenyl)-2-methylpropyl)-3-(4-(3-morpholinoazetidin-1-yl)phenyl)-1H-indazole-5-carboxamide]

Source: US9580390B2, “Indazole compounds as kinase inhibitors and method of treating cancer with same” (University Health Network, priority 2011, dated 2017)
